Data on four compounds can be found in patent US11918575B2, “PZA and cytochrome Bc1 inhibitor combination treatment” (priority 2017, dated 2024).

Data set [1] has as its system Mycobacterium tuberculosis H37Rv. Nature of the data set: Mouse tuberculosis infection model, CFU counts in the lungs after treatment. The data set is classed as in vivo. The note with it: female Swiss mice infected i.v. with H37Rv; oral once daily 5 times/week for 4 weeks (day 12-37); necropsy day 41; BDQ 3 mg/kg, Q203 or Cpd X 20 mg/kg, PZA 150 mg/kg; cut off 1.10 = below detectable level.

Data set [2] is classed as physicochemical. The method, then:
All formulations prepared in 20% HP-β-CD, and used for 5 treatments (one week).
All formulations were solutions and stored at 4° C. during the study.
Stability of BDQ and Q203 in formulation was previously tested, for PZA and Cpd X the stability was tested after one week and found acceptable for both compounds

The next data set relates to M. tuberculosis H37Rv. The conditions noted are these: strain M. tuberculosis H37Rv, inside macrophages; cited from earlier work.
The next data set has as its system M. tuberculosis. The conditions noted are these: cited from earlier work.

Converted amounts (≈) assume the structure as drawn.

As for `COc1nc2ccc(Br)cc2cc1[C@@H](c1ccccc1)[C@@](O)(CCN(C)C)c1cccc2ccccc12` [BDQ, Bedaquiline], the “mean log10 (CFUs in the lungs)” value in data set [1] was found to be 4.46 log10.
As to `CCc1nc2ccc(Cl)cn2c1C(=O)NCc1ccc(N2CC3(CCN(c4ccc(OC(F)(F)F)cc4)CC3)C2)cc1` [Cpd X], the stability in formulation result in data set [2] was “acceptable”. Moreover, the “mean log10 (CFUs in the lungs)” value in data set [1] stood at 4.75 log10.
For `NC(=O)c1cnccn1` [PZA, Pyrazinamide] the same measures were “acceptable” and 3.47 log10.
`CCc1nc2ccc(Cl)cn2c1C(=O)NCc1ccc(N2CCC(c3ccc(OC(F)(F)F)cc3)CC2)cc1` [Q203]: in the data set on M. tuberculosis H37Rv, the MIC50 is on record as 0.28 nM (≈ 0.156 ng/mL). For the same compound, the “activity against replicating and non-replicating bacteria” value in the data set on M. tuberculosis is reported as “highly active”. Moreover, the “mean log10 (CFUs in the lungs)” value in data set [1] is recorded as 4.55 log10.
